According to patent US11402382B2, “Diagnostic and therapeutic methods for cancer” (Genentech, Inc., priority 2017, dated 2022):

Test system: previously untreated metastatic renal cell carcinoma (mRCC)
Test: IMmotion150: PFS and ORR in PD-L1 IHC and gene expression signature (Teff, Angio, Myeloid) subgroups
Format: in vivo, human
Conditions: for PFS HR (95% CI) vs Sun: unstratified
Protocol: PD-L1 status on tumor-infiltrating immune cells (IC) was assessed in the phase II IMmotion150 study by immunohistochemistry (IHC) using the anti-human PD-L1 rabbit monoclonal antibody, SP142, and scored using an identical IHC scoring criteria (IC1/2/3=≥1% of tumor-infiltrating lymphocytes are PD-L1-positive; IC2/3=≥5% of tumor-infiltrating lymphocytes are PD-L1-positive) (n=297). PD-L1 status can be assessed as described in International Patent Application Publication Nos. WO 2016/183326 and WO 2016/196298. Mutation evaluations by whole exome sequencing (WES) and gene expression analyses by RNA-Seq (n=263) were also performed. For the gene expression analyses, gene expression levels were evaluated for T effector and IFNγ response (Teff) genes (CD8A, IFNG, PRF1, EOMES, and PD-L1), as well as for angiogenesis-related (Ang) genes (VEGFA, KDR, ESM1, PECAM1, ANGPTL4, and CD34), and myeloid inflammation-related (Myeloid) genes (IL6, CXCL1, CXCL2, CXCL3, CXCL8, and PTGS2). The Teff genes at low expression levels (i.e., below the median expression levels of the evaluated Teff genes; “Teff low”) and high expression levels (i.e., at or above the median expression levels of the evaluated Teff genes; “Teff high”) were evaluated in relation to progress-free survival (PFS) per RECIST v.1.1 via Independent Review Facility (IRF) assessment. The Ang genes at low expression levels (i.e., below the median expression levels of the evaluated Ang genes; “Ang low”) and high expression levels (i.e., at or above the median expression levels of the evaluated Ang genes; “Ang high”) were also evaluated in relation to PFS per RECIST v.1.1 via IRF assessment. The Myeloid genes at low expression levels (i.e., below the median expression levels of the evaluated Myeloid genes; “Myeloid low”) and high expression levels (i.e., at or above the median expression levels of the evaluated Myeloid genes; “Myeloid high”) were also evaluated in relation to PFS per RECIST v.1.1 via IRF assessment. To determine the median expression levels, first a Z-score was calculated for the normalized expression of all of the genes in a group. The median level of all the Z-scores across the dataset was used as a reference level to identify biomarker high versus biomarker low subgroups.
Tumor specimens from patients acquired <12 months prior to study treatment were required for enrollment in the study. Tissue was prospectively tested for PD-L1 expression on IC by a central laboratory using the SP142 IHC assay (VENTANA, Tucson, Ariz.). IC staining was defined as follows: any discernible PD-L1 staining of any intensity in IC covering <1% or absent, between ≥1% and <5%, between ≥5% and <10%, or ≥10% of tumor area.
Kaplan-Meier methodology was used to estimate the median PFS for each treatment arm, and Kaplan-Meier curves were produced. The primary analysis was triggered when 140 INV-PFS events occurred among patients treated with atezolizumab+bevacizumab and with sunitinib or among patients treated with atezolizumab alone and with sunitinib, whichever occurred later. […] The stratification factors included prior nephrectomy, tumor PD-L1 status, and MSKCC score and were determined based on data from the electronic case report form; if such data were missing, data collected by the IxRS at the time of randomization were used. Tumor specimens were prospectively tested for PD-L1 expression on ICs by a central laboratory using the SP142 IHC assay (VENTANA, Tucson, Ariz.). IC staining was defined as follows: any discernible PD-L1 staining of any intensity in IC covering <1% or absent (ICO), between ≥1% and <5% (IC1), between ≥5% and <10% (IC2), or ≥10% (IC3) of tumor area occupied by tumor cells, associated intratumoral, and contiguous peri-tumoral desmoplastic stroma.
Whole transcriptome profiles were generated for 263 patients using TRUSEQ® RNA Access technology (ILLUMINA®). RNAseq reads were first aligned to ribosomal RNA sequences to remove ribosomal reads. […]

[1] = Teff^HighMyeloid^High vs Teff^HighMyeloid^Low

Compound	PFS HR (95% CI) vs Sunitinib (Ang high (Angio^High) subgroup)	PFS HR (95% CI) vs Sunitinib (Ang low (Angio^Low) subgroup)	PFS HR (95% CI), within arm analysis (Angio^High vs Angio^Low)	PFS HR (95% CI) vs Sunitinib (Myeloid^High subgroup)	PFS HR (95% CI), within arm analysis (Myeloid^High vs Myeloid^Low)	PFS HR (95% CI) vs Sunitinib (Myeloid^Low subgroup)	PFS HR (95% CI) vs Sun (PD-L1 IHC IC1/2/3)	PFS HR (95% CI) vs Sun (PD-L1 IHC IC2/3)	PFS HR (95% CI) vs Sunitinib (Teff high subgroup (at or above median))	PFS HR (95% CI) vs Sunitinib (Teff low subgroup (below median))	PFS HR (95% CI) vs Sunitinib (Teff^High Myeloid^High subgroup)	PFS HR (95% CI) vs Sunitinib (Teff^High Myeloid^Low subgroup)	PFS HR (95% CI), within arm analysis (Teff^High vs Teff^Low)	PFS HR (95% CI), within arm analysis [1]	ORR (Angio^High subgroup) [%]	ORR (Angio^Low subgroup) [%]
Atezo: anti-PD-L1 antibody atezolizumab (CAS Registry Number: 1422185-06-5), Genentech, also known as MPDL3280A	1.46	0.75	0.74	2.03	2.98	0.53	0.97	0.54	0.85	1.33	1.81	0.47	0.83	3.82		
CCN(CC)CCNC(=O)c1c(C)[nH]c(/C=C2\C(=O)Nc3ccc(F)cc32)c1C [Sunitinib, N-[2-(Diethylamino)ethyl]-5-[(Z)-(5-fluoro-2-oxo-1,2-dihydro-3H-indol-3-ylidene)methyl]-2,4-dimethyl-1H-pyrrole-3-carboxamide]			0.31		0.82								1.31	1.10	45	10
